# Like-named read-outs stand apart in the source and are kept apart here.
# Legend:
# treated cats = conditions: cited from earlier work
# [1] = test system: feline amygdala or hippocampal kindled seizures; conditions: partial onset and secondarily generalized limbic seizures; cited from earlier work
# [2] = Pharmacokinetics of imepitoin in cats after oral administration (Example 1); type: in vivo, cat; conditions: for Tmax / Cmax / AUC(0-t): po; for Tmax: 30 mg/kg; for Cmax / AUC(0-t): Day 0, first dose of 30 mg/kg; for AUC(0-t): read-out: AUC0-6h
# Protocol: FIG. 1 Mean plasma concentration-time curves of imepitoin after the first oral dose of 30 mg/kg imepitoin in male (M) and female cats (F) at Day 0, Day 14 and Day 29 (semi-logarithmic scale).
# When administered orally at a preferred dose of e.g. 30 mg/kg bodyweight twice daily (60 mg/kg bodyweight daily dose) imepitoin the highest plasma concentration […] is reached in median 1 hour (range 0.5 to 3 hours) after administration, in most cases 1 hour.
# Corresponding AUC0-6h-values are 28001 ng·h/mL and 24467 ng·h/mL, respectively.
# [3] = test system: clinically healthy male and female cats; assay: Safety 1: tolerance in clinically healthy cats after repeated oral administration for 30 days; type: in vivo, cat
# Source text: In a randomized, controlled, blinded study the tolerance of imepitoin is investigated in clinically healthy male and female cats after repeated oral administration for 30 days.
# Twelve 1-3 years old, male and female domestic short hair cats with a body weight range of 2.8-4.4 kg are assigned to this study. The animals are randomly allocated to two groups, three male and three female animals per group. The test article (imepitoin) is orally administered to the animals of group II at a target dose of 30 mg imepitoin/kg bodyweight twice daily at an interval of 8-12 h on days 0-29. Group I is left untreated serving as controls.
# [4] = test system: clinically healthy male and female cats; assay: Safety 2: repeated oral administration of 40 and 80 mg/kg twice daily for 30 days, placebo controlled; type: in vivo, cat
# Protocol: FIG. 3 Measurement of Alkaline Phosphatase (AP) in serum following administration of imepitoin in doses of 40 or 80 mg/kg bodyweight twice daily, or placebo. AP is routinely used to judge liver function and diagnose liver pathologies, and an elevated AP is indicative for a variety of diseases. […] Day 0 reflects measurement before treatment start.
# Eighteen 9 months old, male and female domestic short hair cats with a body weight range of 2.3-4.9 kg are assigned to this study. The animals are allocated to three test groups employing a pseudo-random body weight stratification procedure that yielded groups with approximately equal mean body weight, with three male and three female animals per group. The test article (imepitoin) is orally administered to the animals at a target dose of 40 mg imepitoin/kg bodyweight and 80 mg imepitoin/kg bodyweight twice daily at an interval of 8-12 h on days 0-30. The third group receives visually identical placebo tablets, to avoid identification of the Placebo Group.
# Physical examination a day before treatment start and on study days 7, 14 and 30 includes body temperature (rectal), ocular system, musculoskeletal system, cardiovascular system, reproductive system, lymphatic system, behavior, nervous system, integumentary system, respiratory system, urinary system and gastro-intestinal system. In addition, blood and urine samples are analyzed before treatment and after 30 days.
# cats with epilepsy = assay: Efficacy 1: two cats diagnosed with epilepsy, severe generalized seizures; type: in vivo, cat
# Protocol: Two cats are diagnosed with epilepsy, having severe generalized seizures.
# The first cat, a 14 year old European Short-Hair cat, had two severe generalized seizures. Both lasted around two minutes, the cat lost consciousness and was disoriented after the seizure. In addition, a fibrosarcoma and hyperthyroidism was diagnosed. The cat was treated twice a day with 100 mg imepitoin, being a dose of 25 mg/kg bodyweight. […] This resolved spontaneously after 10 days of treatment.
# The second cat, 7 years old, experienced two generalized seizures on two consecutive days, and the diagnosis was epilepsy of unknown cause. The cat appeared to be sleepier in the time before occurrence of first seizure.
# [5] = test system: feline patients with epilepsy; assay: Efficacy 2: seizure frequency and severity in feline patients versus untreated status at diagnosis; type: in vivo, cat
# Source text: In some animals, treatment with current standard of care, phenobarbital, is not effective and results in frequent severe seizures despite high-dose treatment.
# [6] = test system: cats with drug resistant epilepsy; assay: Efficacy 4: cats with drug-resistant (phenobarbital) epileptic disorders switched to imepitoin; type: in vivo, cat
# Protocol: Cats with epileptic disorders are treated with increasing doses of phenobarbital, starting from 3 mg/kg bodyweight twice daily up to the maximum tolerated dose. […] According to this treatment failure this represents drug-resistant epileptic disorders. The treatment of these cats with drug resistant epilepsy is now changed to imepitoin, provided at high doses as for example 30 mg/kg bodyweight twice daily.
# [7] = test system: cats with epileptic disorders; assay: Efficacy 3: imepitoin versus phenobarbital in two groups of cats with epileptic disorders
# healthy cats = conditions: 20 mg/kg dose; cited from earlier work
# [8] = female, domestic short hair, plasma, females (n=3)
# [9] = male, domestic short hair, plasma, males (n=3)
# [10] = 30 mg/kg bodyweight twice daily, days 0-29
# [11] = 40 and 80 mg/kg body weight twice daily for 30 days
# [12] = 40 and 80 mg/kg body weight twice daily, after 30 days
# [13] = second cat, 10 mg/kg bodyweight twice daily
# [14] = second cat, 20 mg/kg bodyweight twice daily
# [15] = imepitoin 30 mg/kg twice daily, phenobarbital 3.5 mg/kg twice daily
smiles,measurement,setting,value
[Br-].[K+] [Bromide],treated cats with idiosyncratic allergic pneumonitis,treated cats; cats,35-42%
same,treated cats with seizures controlled,treated cats; cats,about 35%
CC[C@@H](C(N)=O)N1CCCC1=O [Levetiracetam],efficacy as add-on therapy,"treated cats; cats with refractory epilepsy under phenobarbital treatment, 10 cats",somewhat effective
Cl.O=C(O)C1CCCN(CCC=C(c2ccccc2)c2ccccc2)C1 (stereo not shown) [SKF89976A],anticonvulsant effect on kindled seizures,[1],potent anticonvulsant effects
NCC(CC(=O)O)c1ccc(Cl)cc1 (stereo not shown) [baclofen],anticonvulsant effect on kindled seizures,[1],did not show anticonvulsant effects
C=CC(N)CCC(=O)O (stereo not shown) [gamma-vinyl GABA],anticonvulsant effect on kindled seizures,[1],potent anticonvulsant effects
"O=C1N=C(N2CCOCC2)CN1c1ccc(Cl)cc1 [imepitoin, 1-(4-chlorophenyl)-4-(4-morpholinyl)-2,5-dihydro-1H-imidazol-2-one]",accumulation upon long-term BID dosing,"[2]; 30 mg/kg twice daily, Days 0-29",no accumulation occurs
same,exposure compared to the first dosing day,[2]; after 14 and 29 days of twice daily dosing,slightly lower exposure
same,Tmax,"[2]; both sexes, domestic short hair, plasma, oral, 30 mg/kg bodyweight twice daily, read-out: tMax, median",1 h
same,Tmax,"[2]; both sexes, domestic short hair, plasma, oral, 30 mg/kg bodyweight twice daily, read-out: tMax, range",0.5 to 3 h
same,half-life,"[2]; both sexes, domestic short hair, plasma, oral, 30 mg/kg bodyweight twice daily, read-out: half-life time t1/2 (converted)",90 min
same,Cmax,[2]; [8],6640 ng/mL
same,AUC(0-t),[2]; [8],24500 ng·h/mL
same,Cmax,[2]; [9],7050 ng/mL
same,AUC(0-t),[2]; [9],28000 ng·h/mL
same,time of last measurable concentration,[2]; oral 30 mg/kg,more than 18 hours
same,liver enzyme measurements versus untreated control,"[3]; 30 mg/kg bodyweight twice daily, FIGS. 2A+2B",no difference between imepitoin-treated and untreated (control) animals
same,Mortality,[3]; [10],not observed
same,"effect on body weight development, food and water consumption, heart rate, respiratory rate and laboratory parameters (hematology, clinical chemistry, urinalysis)",[3]; [10],No evidence of a clear effect
same,sedation,[3]; [10],No sedation is observed in any animal
same,animals with temporary vomitus or choking,"[3]; 30 mg/kg twice daily, from the second week of treatment onwards",3 of 6
same,behavioral changes or sedation,[4]; [11],not noted
same,considerable adverse events,[4]; [11],no considerable adverse events are observed
same,emesis,[4]; [11],intermittently observed in the second and third week of treatment
same,tolerability,[4]; [11],well tolerated by all cats
same,hematological or biochemical abnormalities in blood examination,[4]; [12],No hematological or biochemical abnormalities are noted
same,urine analysis,[4]; [12],physiological results
same,Alkaline Phosphatase (AP) in serum,"[4]; 40 or 80 mg/kg bodyweight twice daily, FIG. 3",in the physiological range with normal variance
same,considerable adverse events,"cats with epilepsy; first cat, 25 mg/kg bodyweight twice a day",No considerable adverse events were observed
same,tiredness,"cats with epilepsy; first cat, 25 mg/kg bodyweight twice a day, initially","tiredness 1-1.5 hours after application of the drug, which lasted for about two hours"
same,duration of complete seizure freedom (observation period),"cats with epilepsy; first cat, 25 mg/kg then 20 mg/kg bodyweight twice a day",6 months
same,seizures under treatment,"cats with epilepsy; first cat, 14 years, 100 mg (25 mg/kg bodyweight) twice a day",no further seizures
same,tiredness after dose reduction,"cats with epilepsy; first cat, dose reduced to 20 mg/kg bodyweight after three months",the tiredness disappeared
same,seizures under treatment,cats with epilepsy; [13],experienced again a seizure
same,tiredness,cats with epilepsy; [13],resolved the tiredness
same,duration of complete seizure freedom (observation period),cats with epilepsy; [14],2.5 months
same,tiredness or other adverse events,cats with epilepsy; [14],No tiredness or other adverse events were observed
same,tiredness,"cats with epilepsy; second cat, 30 mg/kg bodyweight twice a day",showed the tiredness observed in the first cat already after treatment start
same,response to treatment,"cats with epilepsy; second cat, 7 years, 30 mg/kg bodyweight twice a day",responded immediately to treatment
same,seizure frequency and severity compared to untreated status at diagnosis,[5]; 30 mg/kg bodyweight twice daily,significantly reduced
same,cats achieving seizure freedom,[5]; 30 mg/kg bodyweight twice daily at an interval of 8-14 hours,at least 40%
same,considerable adverse events,"[5]; 30 mg/kg bodyweight twice daily, seizure-free cats",do also not experience considerable adverse events
same,seizure frequency and/or severity in animals in which phenobarbital is not effective,[5]; 20 to 60 mg/kg bodyweight two- or three-times daily,reduces seizure frequency and/or severity significantly
same,reduction of seizure frequency,"[6]; after change to imepitoin 30 mg/kg bodyweight twice daily, in most cases",at least 50%
same,seizure status after transition from phenobarbital to imepitoin monotherapy,[6]; cats with uncontrolled or continuing seizures under phenobarbital,became seizure free
same,seizure freedom among well controlled cats,[7]; imepitoin 30 mg/kg bodyweight twice daily,the majority of them reach seizure freedom
same,cats poorly controlled / disease not adequately controlled,[7]; [15],about 15%
same,cats with well controlled epilepsy/seizures,[7]; [15],85%
CCC1(c2ccccc2)C(=O)NC(=O)NC1=O [phenobarbital],treated cases with sedation,"treated cats; cats, recent study (Pakozdy et al. 2013)",over 40%
same,cats poorly controlled / disease not adequately controlled,[7]; [15],30%
same,cats with well controlled epilepsy/seizures,[7]; [15],70%
same,treated cats experiencing at least one adverse event,[7]; [15],65%
same,treated cats experiencing sedation as side effect,[7]; phenobarbital 3.5 mg/kg bodyweight twice daily,approximately 40%
NC(=O)CCC/N=C(\c1ccc(Cl)cc1)c1cc(F)ccc1O [progabide],anticonvulsant effect on kindled seizures,[1],potent anticonvulsant effects
NS(=O)(=O)Cc1noc2ccccc12 [zonisamide],"share of healthy cats with adverse reactions (anorexia, diarrhea, vomiting, somnolence, ataxia)",healthy cats,Approximately half
